Experimental data from US11447465B2, “Pharmaceutical compounds for treatment of medical disorders” (Achillion Pharmaceuticals, Inc., priority 2017, dated 2022).
Read-outs that look alike come from different tables or passages of the source.

Target: Human Factor D (Homo sapiens (Human), UniProt P00746)
Test: Human Factor D Assay
Type: biochemical
Conditions: Human Factor D 80 nM, substrate Z-L-Lys-SBzl
Procedure: Human Factor D (purified from human serum, Complement Technology, Inc.) at 80 nM final concentration is incubated with test compound at various concentrations for 5 min at room temperature in 50 mM Tris, 1M NaCl, pH 7.5. A synthetic substrate Z-L-Lys-SBzl and DTNB (Ellman's reagent) are added to final concentrations of 100 μM each. Absorbance at 405 nm (A405) is recorded at 30 second intervals for 30 min using a microplate spectrophotometer. IC50 values are calculated by nonlinear regression of Complement Factor D reaction rates as a function of test compound concentration.

[1] = Table 5, read-out: IC50 (Stars)

Chain of Human Factor D (P00746 26-253): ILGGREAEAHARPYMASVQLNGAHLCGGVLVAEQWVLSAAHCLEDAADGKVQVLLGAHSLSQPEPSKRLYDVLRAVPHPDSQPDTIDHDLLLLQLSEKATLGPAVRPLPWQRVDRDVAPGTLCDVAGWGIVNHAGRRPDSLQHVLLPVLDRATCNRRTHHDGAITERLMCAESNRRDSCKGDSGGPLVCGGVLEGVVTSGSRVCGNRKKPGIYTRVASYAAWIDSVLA

| Compound | IC50 [1] [nM] | IC50 (Table 6, read-out: IC5 (Stars)) [nM] |
| --- | --- | --- |
| CC(=O)c1nn(CC(=O)N2[C@H](C(=O)Nc3nc(Br)ccc3C)C[C@@]3(C)C[C@@H]23)c2ccc(NC(=O)C3CCCC3(F)F)cc12 (stereo partly drawn) [Compound T-27, (1R,3S,5R)-2-(2-(3-acetyl-5-(2,2-difluorocyclopentane-1-carboxamido)-1H-indazol-1-yl)acetyl)-N-(6-bromo-3-methylpyridin-2-yl)-5-methyl-2-azabicyclo[3.1.0]hexane-3-carboxamide] | < 1000 |  |
| NC(=O)c1nn(CC(=O)N2C[C@H](F)C[C@H]2C(=O)Nc2cccc(Br)n2)cc1/C=C/C(=O)NC1CC1 [Compound T-28, 1-(2-((2S,4R)-2-((6-bromopyridin-2-yl)carbamoyl)-4-fluoropyrrolidin-1-yl)-2-oxoethyl)-4-((E)-3-(cyclopropylamino)-3-oxoprop-1-en-1-yl)-1H-pyrazole-3-carboxamide] | 1000 to 10000 |  |
| CC(=O)c1nn(CC(=O)N2[C@H](C(=O)Nc3nc(Br)ccc3C)C[C@@]3(C)C[C@@H]23)c2ccc(OC(=O)NC3CC3)cc12 [Compound T-32, 3-acetyl-1-(2-((1R,3S,5R)-3-((6-bromo-3-methylpyridin-2-yl)carbamoyl)-5-methyl-2-azabicyclo[3.1.0]hexan-2-yl)-2-oxoethyl)-1H-indazol-5-yl cyclopropylcarbamate] | < 1000 |  |
| CC(=O)c1nn(CC(=O)N2[C@H](C(=O)Nc3nc(Br)ccc3C)C[C@@]3(C)C[C@@H]23)c2cc(S(C)(=N)=O)ccc12 (stereo partly drawn) [Compound T-33, (1R,3S,5R)-2-(2-(3-acetyl-6-(S-methylsulfonimidoyl)-1H-indazol-1-yl)acetyl)-N-(6-bromo-3-methylpyridin-2-yl)-5-methyl-2-azabicyclo[3.1.0]hexane-3-carboxamide] | < 1000 |  |
| CC(=O)c1nn(CC(=O)N2[C@H](C(=O)Nc3nc(Br)ccc3C)C[C@@]3(CNC(=O)CC(F)(F)F)C[C@@H]23)c2c(C)cccc12 [Compound T-35, (1R,3S,5R)-2-(2-(3-acetyl-7-methyl-1H-indazol-1-yl)acetyl)-N-(6-bromo-3-methylpyridin-2-yl)-5-((3,3,3-trifluoropropanamido)methyl)-2-azabicyclo[3.1.0]hexane-3-carboxamide] | < 1000 |  |
| CC(=O)c1nn(CC(=O)N2[C@H]3C[C@@]3(C)C[C@H]2C(=O)Nc2nc(Br)ccc2C)c2c(S(C)(=N)=O)cccc12 (stereo partly drawn) [Compound T-36, (1S,3S,5S)-2-(2-(3-acetyl-7-(S-methylsulfonimidoyl)-1H-indazol-1-yl)acetyl)-N-(6-bromo-3-methylpyridin-2-yl)-5-methyl-2-azabicyclo[3.1.0]hexane-3-carboxamide] | > 10000 |  |
| CC(=O)c1nn(CC(=O)N2C[C@H](F)C[C@H]2C(=O)Nc2cccc(Br)n2)c2c1CCCC2 [Compound T-37, (2S,4R)-1-(2-(3-acetyl-4,5,6,7-tetrahydro-1H-indazol-1-yl)acetyl)-N-(6-bromopyridin-2-yl)-4-fluoropyrrolidine-2-carboxamide] | 1000 to 10000 |  |
| CC(=O)c1nn(CC(=O)N2[C@H]3C[C@@]3(CN(C)C)C[C@H]2C(=O)NCc2cccc(Cl)c2F)c2cc(P(C)(=O)O)ccc12 [Compound T-38, (3-acetyl-1-(2-((1S,3S,5S)-3-((3-chloro-2-fluorobenzyl)carbamoyl)-5-((dimethylamino)methyl)-2-azabicyclo[3.1.0]hexan-2-yl)-2-oxoethyl)-1H-indazol-6-yl)(methyl)phosphinic acid] | 1000 to 10000 |  |
| CC(=O)c1nn(CC(=O)N2[C@H](C(=O)Nc3nc(Br)ccc3C)C[C@@]3(CN4C[C@H]5CCC[C@H]5C4)C[C@@H]23)c2c(C)cccc12 [Compound T-39, (1R,3S,5R)-2-(2-(3-acetyl-7-methyl-1H-indazol-1-yl)acetyl)-N-(6-bromo-3-methylpyridin-2-yl)-5-(((3aR,6aS)-hexahydrocyclopenta[c]pyrrol-2(1H)-yl)methyl)-2-azabicyclo[3.1.0]hexane-3-carboxamide] | < 1000 |  |
| CC(=O)c1nn(CC(=O)N2[C@H](C(=O)Nc3nc(Br)ccc3C)C[C@@]3(C)C[C@@H]23)c2c(S(C)=N)cccc12 (stereo partly drawn) [Compound T-40, (1R,3S,5R)-2-(2-(3-acetyl-7-(S-methylsulfinimidoyl)-1H-indazol-1-yl)acetyl)-N-(6-bromo-3-methylpyridin-2-yl)-5-methyl-2-azabicyclo[3.1.0]hexane-3-carboxamide] | < 1000 |  |
| CC(=O)c1nn(CC(=O)N2[C@H](C(=O)Nc3nc(Br)ccc3C)C[C@@]3(C)C[C@@H]23)c2c(S(C)(=N)=O)cccc12 (stereo partly drawn) [Compound T-41, (1R,3S,5R)-2-(2-(3-acetyl-7-(S-methylsulfonimidoyl)-1H-indazol-1-yl)acetyl)-N-(6-bromo-3-methylpyridin-2-yl)-5-methyl-2-azabicyclo[3.1.0]hexane-3-carboxamide] | < 1000 |  |
| CC(=O)c1nn(CC(=O)N2[C@H](C(=O)Nc3nc(Br)ccc3C)C[C@@]3(CN4CC5(CCCC5)C4)C[C@@H]23)c2c(C)cccc12 [Compound T-42, (1R,3S,5R)-5-(2-azaspiro[3,4]octan-2-ylmethyl)-2-(2-(3-acetyl-7-methyl-1H-indazol-1-yl)acetyl)-N-(6-bromo-3-methylpyridin-2-yl)-2-azabicyclo[3.1.0]hexane-3-carboxamide] | < 1000 |  |
| CC(=O)c1nn(CC(=O)N2[C@H](C(=O)Nc3nc(Br)ccc3C)C[C@@]3(CNC(=O)C4CCCC4(F)F)C[C@@H]23)c2c(C)cccc12 (stereo partly drawn) [Compound T-43, (1R,3S,5R)-2-(2-(3-acetyl-7-methyl-1H-indazol-1-yl)acetyl)-N-(6-bromo-3-methylpyridin-2-yl)-5-((2,2-difluorocyclopentane-1-carboxamido)methyl)-2-azabicyclo[3.1.0]hexane-3-carboxamide] | < 1000 |  |
| CC(=O)c1cn(CC(=O)N2[C@H](C(=O)NCc3cccc(Cl)c3F)C[C@@]3(CN4CCN(C)CC4)C[C@@H]23)c2cc(P(=O)(O)O)ccc12 [Compound T-44, (3-acetyl-1-(2-((1R,3S,5R)-3-((3-chloro-2-fluorobenzyl)carbamoyl)-5-((4-methylpiperazin-1-yl)methyl)-2-azabicyclo[3.1.0]hexan-2-yl)-2-oxoethyl)-1H-indol-6-yl)phosphonic acid] | < 1000 |  |
| CC(=O)c1cn(CC(=O)N2[C@H]3C[C@@]3(CN3CCN(C)CC3)C[C@H]2C(=O)NCc2cccc(Cl)c2F)c2cc(P(=O)(O)O)ccc12 [Compound T-45, (3-acetyl-1-(2-((1S,3S,5S)-3-((3-chloro-2-fluorobenzyl)carbamoyl)-5-((4-methylpiperazin-1-yl)methyl)-2-azabicyclo[3.1.0]hexan-2-yl)-2-oxoethyl)-1H-indol-6-yl)phosphonic acid] | 1000 to 10000 |  |
| CC(=O)c1cn(CC(=O)N2C3CC3(CN(C)C)C[C@H]2C(=O)NCc2cccc(Cl)c2F)c2cc(P(=O)(O)O)ccc12 (stereo partly drawn) [Compound T-46, (3-acetyl-1-(2-((3S)-3-((3-chloro-2-fluorobenzyl)carbamoyl)-5-((dimethylamino)methyl)-2-azabicyclo[3.1.0]hexan-2-yl)-2-oxoethyl)-1H-indol-6-yl)phosphonic acid] | 1000 to 10000 |  |
| CC(=O)c1cn(CC(=O)N2[C@H](C(=O)NCc3cccc(Cl)c3F)C[C@@]3(CN(C)C)C[C@@H]23)c2cc(P(C)(=O)O)ccc12 [Compound T-47, (3-acetyl-1-(2-((1R,3S,5R)-3-((3-chloro-2-fluorobenzyl)carbamoyl)-5-((dimethylamino)methyl)-2-azabicyclo[3.1.0]hexan-2-yl)-2-oxoethyl)-1H-indol-6-yl)(methyl)phosphinic acid] | < 1000 |  |
| CC(=O)c1cn(CC(=O)N2[C@H]3C[C@@]3(CN(C)C)C[C@H]2C(=O)NCc2cccc(Cl)c2F)c2cc(P(C)(=O)O)ccc12 [Compound T-48, (3-acetyl-1-(2-((1S,3S,5S)-3-((3-chloro-2-fluorobenzyl)carbamoyl)-5-((dimethylamino)methyl)-2-azabicyclo[3.1.0]hexan-2-yl)-2-oxoethyl)-1H-indol-6-yl)(methyl)phosphinic acid] | 1000 to 10000 |  |
| CC(=O)c1nn(CC(=O)N2[C@H](C(=O)Nc3nc(Br)ccc3C)C[C@@]3(CN(C)C)C[C@@H]23)c2cc(C(=O)NS(=O)(=O)C3CC3)ccc12 [Compound T-49, 3-acetyl-1-(2-((1R,3S,5R)-3-((6-bromo-3-methylpyridin-2-yl)carbamoyl)-5-((dimethylamino)methyl)-2-azabicyclo[3.1.0]hexan-2-yl)-2-oxoethyl)-N-(cyclopropylsulfonyl)-1H-indazole-6-carboxamide] | < 1000 |  |
| CC(=O)c1nn(CC(=O)N2[C@H]3C[C@@]3(CN(C)C)C[C@H]2C(=O)Nc2nc(Br)ccc2C)c2cc(C(=O)NS(=O)(=O)C3CC3)ccc12 [Compound T-50, 3-acetyl-1-(2-((1S,3S,5S)-3-((6-bromo-3-methylpyridin-2-yl)carbamoyl)-5-((dimethylamino)methyl)-2-azabicyclo[3.1.0]hexan-2-yl)-2-oxoethyl)-N-(cyclopropylsulfonyl)-1H-indazole-6-carboxamide] | 1000 to 10000 |  |
| CC(=O)c1nn(CC(=O)N2[C@H](C(=O)Nc3nc(Br)ccc3C3CC3)C[C@@]3(C)C[C@@H]23)c2ccc(O[C@@H]3CO[C@H]4[C@@H]3OC[C@H]4O)cc12 [Compound T-51, (1R,3S,5R)-2-(2-(3-acetyl-5-(((3R,3aR,6R,6aR)-6-hydroxy-hexahydrofuro[3,2-b]furan-3-yl)oxy)-1H-indazol-1-yl)acetyl)-N-(6-bromo-3-cyclopropyl-pyridin-2-yl)-5-methyl-2-azabicyclo[3.1.0]hexane-3-carboxamide] |  | < 1000 |
